One molecule from PMC5218480 (PLoS ONE, 2017) can be followed below.

The subject of this test is MV-4-11 cells. Kind of test: Gene expression microarray analysis (Affymetrix PrimeView) and GSEA. Type of test: cell-based, human. Also on record: RFU PODN (11730768_x_at) / Fold change /veh PODN (11730768_x_at) / RFU LINC00158 (11744669_a_at) / Fold change /veh LINC00158 (11744669_a_at) / RFU DUSP10 (11751237_a_at) / Fold change /veh DUSP10 (11751237_a_at) / RFU ID3 (11757404_x_at) / Fold change /veh ID3 (11757404_x_at) / RFU PLEKHG5 (11737974_s_at) / Fold change /veh PLEKHG5 (11737974_s_at) / RFU LRRC4B (11730491_at) / Fold change /veh LRRC4B (11730491_at) / RFU GIMAP4 (11747438_a_at) / Fold change /veh GIMAP4 (11747438_a_at) / RFU KRT8 (11758183_x_at) / Fold change /veh KRT8 (11758183_x_at) / RFU CNN1 (11734310_a_at) / Fold change /veh CNN1 (11734310_a_at) / RFU VPS37D (11726825_at) / Fold change /veh VPS37D (11726825_at) / RFU C10orf10 (11716522_x_at) / Fold change /veh C10orf10 (11716522_x_at) / RFU KIR2DL2 /// KIR2DL4 /// KIR2DL5A /// KIR2DL5B /// KIR2DS1 /// KIR2DS2 /// KIR2DS3 /// KIR2DS4 /// KIR3DL3 /// KIR3DL3 /// KIR3DS1 (11738374_at) / Fold change /veh KIR2DL2 /// KIR2DL4 /// KIR2DL5A /// KIR2DL5B /// KIR2DS1 /// KIR2DS2 /// KIR2DS3 /// KIR2DS4 /// KIR3DL3 /// KIR3DL3 /// KIR3DS1 (11738374_at) / RFU C1QL1 (11718748_at) / Fold change /veh C1QL1 (11718748_at) / RFU TMPRSS4 (11747572_a_at) / Fold change /veh TMPRSS4 (11747572_a_at) / RFU HAMP (11756126_x_at) / Fold change /veh HAMP (11756126_x_at) / RFU RNFT2 (11725882_a_at) / Fold change /veh RNFT2 (11725882_a_at) / RFU NR4A2 (11747474_a_at) / Fold change /veh NR4A2 (11747474_a_at) / RFU ABCC12 (11746883_a_at) / Fold change /veh ABCC12 (11746883_a_at) / RFU TMEM136 (11760407_x_at) / Fold change /veh TMEM136 (11760407_x_at) / RFU CLDN22 /// WWC2 (11732394_at) / Fold change /veh CLDN22 /// WWC2 (11732394_at) / RFU HLA-DPB1 (11760878_x_at) / Fold change /veh HLA-DPB1 (11760878_x_at) / RFU SPINT1 (11716480_a_at) / Fold change /veh SPINT1 (11716480_a_at) / RFU GAP43 (11754022_s_at) / Fold change /veh GAP43 (11754022_s_at) / RFU A4GNT (11735810_at) / Fold change /veh A4GNT (11735810_at) / RFU PRB3 (11715151_x_at) / Fold change /veh PRB3 (11715151_x_at) / RFU TUBB4B (11761932_at) / Fold change /veh TUBB4B (11761932_at) / RFU CAPN14 (11732068_a_at) / Fold change /veh CAPN14 (11732068_a_at) / RFU TMCC2 (11721928_a_at) / Fold change /veh TMCC2 (11721928_a_at) / RFU IRGQ (11745062_a_at) / Fold change /veh IRGQ (11745062_a_at) / RFU FAM174B (11720279_a_at) / Fold change /veh FAM174B (11720279_a_at) / RFU TMPRSS4 (11748680_a_at) / Fold change /veh TMPRSS4 (11748680_a_at) / RFU FAM212B (11763350_a_at) / Fold change /veh FAM212B (11763350_a_at) / RFU PLEKHG5 (11743358_a_at) / Fold change /veh PLEKHG5 (11743358_a_at) / RFU ZSCAN30 (11745921_a_at) / Fold change /veh ZSCAN30 (11745921_a_at) / RFU CMKLR1 (11741424_a_at) / Fold change /veh CMKLR1 (11741424_a_at) / RFU LOC101060620 /// MAPK8IP1 (11723275_at) / Fold change /veh LOC101060620 /// MAPK8IP1 (11723275_at) / RFU SPTSSB (11747773_x_at) / Fold change /veh SPTSSB (11747773_x_at) / RFU PRSS12 (11739890_at) / Fold change /veh PRSS12 (11739890_at) / RFU BIN1 (11741810_x_at) / Fold change /veh BIN1 (11741810_x_at) / RFU WNT11 (11732464_a_at) / Fold change /veh WNT11 (11732464_a_at) / RFU C10orf10 (11716521_a_at) / Fold change /veh C10orf10 (11716521_a_at) / RFU C5orf56 (11738089_at) / Fold change /veh C5orf56 (11738089_at) / RFU CYB561 (11721691_x_at) / Fold change /veh CYB561 (11721691_x_at) / RFU ANKRD19P (11752326_a_at) / Fold change /veh ANKRD19P (11752326_a_at) / RFU OR2T12 /// OR2T33 /// OR2T8 (11738714_s_at) / Fold change /veh OR2T12 /// OR2T33 /// OR2T8 (11738714_s_at) / RFU VCAN (11748164_a_at) / Fold change /veh VCAN (11748164_a_at) / RFU JSRP1 (11732532_at) / Fold change /veh JSRP1 (11732532_at) / RFU KRTAP10-11 (11738290_x_at) / Fold change /veh KRTAP10-11 (11738290_x_at) / RFU MYO3A (11730013_a_at) / Fold change /veh MYO3A (11730013_a_at) / RFU EBF3 (11725865_a_at) / Fold change /veh EBF3 (11725865_a_at) / RFU CAMK2N1 (11719241_x_at) / Fold change /veh CAMK2N1 (11719241_x_at) / RFU C5orf56 (11738088_a_at) / Fold change /veh C5orf56 (11738088_a_at) / RFU OLFML3 (11715873_a_at) / Fold change /veh OLFML3 (11715873_a_at) / RFU LOC100653217 /// NTM (11731650_a_at) / Fold change /veh LOC100653217 /// NTM (11731650_a_at) / RFU MAPK11 (11762145_a_at) / Fold change /veh MAPK11 (11762145_a_at) / RFU FIZ1 (11724087_x_at) / Fold change /veh FIZ1 (11724087_x_at) / RFU OASL (11726364_x_at) / Fold change /veh OASL (11726364_x_at) / RFU SOX15 (11748057_x_at) / Fold change /veh SOX15 (11748057_x_at) / RFU CD79A (11719716_a_at) / Fold change /veh CD79A (11719716_a_at) / RFU HIST1H1D (11736915_at) / Fold change /veh HIST1H1D (11736915_at) / RFU CASKIN2 (11723855_a_at) / Fold change /veh CASKIN2 (11723855_a_at) / RFU LOC730098 (11760151_x_at) / Fold change /veh LOC730098 (11760151_x_at) / RFU OR4N2 (11742367_at) / Fold change /veh OR4N2 (11742367_at) / RFU PRRT2 (11749266_a_at) / Fold change /veh PRRT2 (11749266_a_at) / RFU SNX32 (11753110_a_at) / Fold change /veh SNX32 (11753110_a_at) / RFU CDHR5 (11726645_a_at) / Fold change /veh CDHR5 (11726645_a_at) / RFU RCAN1 (11760418_a_at) / Fold change /veh RCAN1 (11760418_a_at) / RFU FAM167A (11723789_a_at) / Fold change /veh FAM167A (11723789_a_at) / RFU FAM26E (11764081_at) / Fold change /veh FAM26E (11764081_at) / RFU ISYNA1 (11749810_s_at) / Fold change /veh ISYNA1 (11749810_s_at) / RFU ACY1 (11761880_at) / Fold change /veh ACY1 (11761880_at) / RFU 11764098_at / Fold change /veh 11764098_at / RFU SAMD14 (11745864_x_at) / Fold change /veh SAMD14 (11745864_x_at) / RFU NPB (11741838_a_at) / Fold change /veh NPB (11741838_a_at) / RFU TMPRSS6 (11731388_a_at) / Fold change /veh TMPRSS6 (11731388_a_at) / RFU KRTAP10-2 (11738614_at) / Fold change /veh KRTAP10-2 (11738614_at) / RFU ARHGAP8 /// PRR5-ARHGAP8 (11727945_x_at) / Fold change /veh ARHGAP8 /// PRR5-ARHGAP8 (11727945_x_at) / RFU KRTAP5-7 /// NADSYN1 (11734609_at) / Fold change /veh KRTAP5-7 /// NADSYN1 (11734609_at) / RFU RASL12 (11751679_a_at) / Fold change /veh RASL12 (11751679_a_at) / RFU CDKN2B (11736163_a_at) / Fold change /veh CDKN2B (11736163_a_at) / RFU PRF1 (11729649_at) / Fold change /veh PRF1 (11729649_at) / RFU, ZNF638 /// ZNF638-IT1 / Fold change vs veh, ZNF638 /// ZNF638-IT1 / RFU, PANK3 / Fold change vs veh, PANK3 / RFU, SH3YL1 / Fold change vs veh, SH3YL1 / RFU, ZEB2 / Fold change vs veh, ZEB2 / RFU, NRIP1 / Fold change vs veh, NRIP1 / RFU, PTTG1IP / Fold change vs veh, PTTG1IP / RFU, CAPN2 / Fold change vs veh, CAPN2 / RFU, MED14 / Fold change vs veh, MED14 / RFU, SNORA58 / Fold change vs veh, SNORA58 / RFU, C1orf63 / Fold change vs veh, C1orf63 / RFU, LRRFIP1 / Fold change vs veh, LRRFIP1 / RFU, NDUFAF7 / Fold change vs veh, NDUFAF7 / RFU, SLC12A2 / Fold change vs veh, SLC12A2 / RFU, IBTK / Fold change vs veh, IBTK / RFU, ESF1 / Fold change vs veh, ESF1 / Fold change vs veh, TMEM50B / RFU, TAOK1 / Fold change vs veh, TAOK1 / RFU, ACBD3 / Fold change vs veh, ACBD3 / RFU, TMA16 / Fold change vs veh, TMA16 / RFU, RWDD3 / Fold change vs veh, RWDD3 / RFU, BCAT1 / Fold change vs veh, BCAT1 / RFU, EDEM3 / Fold change vs veh, EDEM3 / RFU, TMEM33 / Fold change vs veh, TMEM33 / RFU, WDR75 / Fold change vs veh, WDR75 / RFU, AHCTF1 / Fold change vs veh, AHCTF1 / RFU, TFRC / Fold change vs veh, TFRC / RFU, ZDHHC17 / Fold change vs veh, ZDHHC17 / RFU, NOM1 / Fold change vs veh, NOM1 / RFU, ARL8B / Fold change vs veh, ARL8B / RFU, ZBTB11 / Fold change vs veh, ZBTB11 / RFU, TAMM41 / Fold change vs veh, TAMM41 / RFU, KIAA1704 /// LOC100996395 / Fold change vs veh, KIAA1704 /// LOC100996395 / RFU, ING1 / Fold change vs veh, ING1 / RFU, TRMT61B / Fold change vs veh, TRMT61B / RFU, FUBP3 / Fold change vs veh, FUBP3 / RFU, TP53 / Fold change vs veh, TP53 / RFU, TNKS2 / Fold change vs veh, TNKS2 / RFU, ZFP14 / Fold change vs veh, ZFP14 / RFU, ACTR2 / Fold change vs veh, ACTR2 / RFU, PPP3R1 / Fold change vs veh, PPP3R1 / RFU, PIK3R1 / Fold change vs veh, PIK3R1 / RFU, HNRNPA1 / Fold change vs veh, HNRNPA1 / RFU, RNF170 / Fold change vs veh, RNF170 / RFU, ZNF28 / Fold change vs veh, ZNF28 / RFU, RNGTT / Fold change vs veh, RNGTT / RFU, OGT / Fold change vs veh, OGT / RFU, BRD1 / Fold change vs veh, BRD1 / RFU, MARS / Fold change vs veh, MARS / RFU, ZNF655 / Fold change vs veh, ZNF655 / RFU, FAHD1 / Fold change vs veh, FAHD1 / RFU, BDP1 / Fold change vs veh, BDP1 / RFU, LRRCC1 / Fold change vs veh, LRRCC1 / RFU, ARID1A / Fold change vs veh, ARID1A / RFU, ZNF146 / Fold change vs veh, ZNF146 / RFU, ZNF330 / Fold change vs veh, ZNF330 / RFU, GPN3 / Fold change vs veh, GPN3 / RFU, C9orf123 / Fold change vs veh, C9orf123 / RFU, N4BP2L2 / Fold change vs veh, N4BP2L2 / RFU, ARFIP1 / Fold change vs veh, ARFIP1 / RFU, FAM179B / Fold change vs veh, FAM179B / RFU, BCL10 / Fold change vs veh, BCL10 / RFU, UHRF1BP1L / Fold change vs veh, UHRF1BP1L / RFU, BET1 / Fold change vs veh, BET1 / RFU, CNOT2 / Fold change vs veh, CNOT2 / RFU, ZNF268 / Fold change vs veh, ZNF268 / Fold change vs veh, ZNF507 / RFU, DGCR2 / Fold change vs veh, DGCR2 / RFU, WDSUB1 / Fold change vs veh, WDSUB1 / Fold change vs veh, HSP90B1 /// MIR3652 / RFU, ADSS / Fold change vs veh, ADSS / RFU, GK / Fold change vs veh, GK / RFU, ZNF148 / Fold change vs veh, ZNF148 / RFU, TAF9 / Fold change vs veh, TAF9 / RFU, SLC1A5 / Fold change vs veh, SLC1A5 / RFU, SLMO2 / Fold change vs veh, SLMO2 / RFU, ABCC4 / Fold change vs veh, ABCC4 / RFU, LOC101060439 /// RAP1B / Fold change vs veh, LOC101060439 /// RAP1B / RFU, RFX7 / Fold change vs veh, RFX7 / RFU, GTPBP10 / Fold change vs veh, GTPBP10 / RFU, CNEP1R1 / Fold change vs veh, CNEP1R1 / RFU, BIVM-ERCC5 /// ERCC5 / Fold change vs veh, BIVM-ERCC5 /// ERCC5 / RFU, ILF3 / Fold change vs veh, ILF3 / RFU 11762660_at / Fold change /veh 11762660_at / RFU VCAN (11757783_s_at) / Fold change /veh VCAN (11757783_s_at) / RFU DDX43 (11728927_at) / Fold change /veh DDX43 (11728927_at) / RFU KRT8 (11758188_x_at) / Fold change /veh KRT8 (11758188_x_at) / RFU NKD1 (11759106_at) / Fold change /veh NKD1 (11759106_at) / RFU SRD5A1 (11742802_a_at) / Fold change /veh SRD5A1 (11742802_a_at) / RFU TPSAB1 /// TPSB2 (11721975_s_at) / Fold change /veh TPSAB1 /// TPSB2 (11721975_s_at) / RFU GSTM3 (11746129_a_at) / Fold change /veh GSTM3 (11746129_a_at) / RFU IL23R (11737362_x_at) / Fold change /veh IL23R (11737362_x_at) / RFU TMEM51 (11727254_a_at) / Fold change /veh TMEM51 (11727254_a_at) / RFU PIWIL2 (11732686_x_at) / Fold change /veh PIWIL2 (11732686_x_at) / RFU ORM1 (11744905_x_at) / Fold change /veh ORM1 (11744905_x_at) / RFU CCDC152 (11743942_at) / Fold change /veh CCDC152 (11743942_at) / RFU ECM1 (11717891_a_at) / Fold change /veh ECM1 (11717891_a_at) / RFU IL23R (11748794_a_at) / Fold change /veh IL23R (11748794_a_at) / RFU TNFAIP8L3 (11732012_x_at) / Fold change /veh TNFAIP8L3 (11732012_x_at) / RFU MBOAT4 (11741988_at) / Fold change /veh MBOAT4 (11741988_at) / RFU 11764193_at / Fold change /veh 11764193_at / RFU TMEM53 (11763286_at) / Fold change /veh TMEM53 (11763286_at) / RFU MAGEB2 (11727129_at) / Fold change /veh MAGEB2 (11727129_at) / RFU TMEM200A (11744735_a_at) / Fold change /veh TMEM200A (11744735_a_at) / RFU CCDC152 (11751479_a_at) / Fold change /veh CCDC152 (11751479_a_at) / RFU FAM211A (11726209_a_at) / Fold change /veh FAM211A (11726209_a_at) / RFU RGS16 (11746705_a_at) / Fold change /veh RGS16 (11746705_a_at) / RFU VCAN (11755009_s_at) / Fold change /veh VCAN (11755009_s_at) / RFU RHOB (11743442_s_at) / Fold change /veh RHOB (11743442_s_at) / RFU RGS16 (11720943_a_at) / Fold change /veh RGS16 (11720943_a_at) / RFU RGS16 (11720944_at) / Fold change /veh RGS16 (11720944_at) / RFU, VPS4B / Fold change vs veh, VPS4B / RFU, CREB1 / Fold change vs veh, CREB1 / RFU, DNAJC13 / Fold change vs veh, DNAJC13 / RFU, GNAQ / Fold change vs veh, GNAQ / RFU, CDK5R1 / Fold change vs veh, CDK5R1 / RFU, ZRANB3 / Fold change vs veh, ZRANB3 / RFU, CUL4A / Fold change vs veh, CUL4A / RFU, CCNY / Fold change vs veh, CCNY / RFU, UFL1 / Fold change vs veh, UFL1 / RFU, COG3 / Fold change vs veh, COG3 / RFU, DIAPH2 / Fold change vs veh, DIAPH2 / RFU, SKA2 / Fold change vs veh, SKA2 / RFU, AFF3 / Fold change vs veh, AFF3 / RFU, LMF1 / Fold change vs veh, LMF1 / RFU, IPO11 / Fold change vs veh, IPO11 / RFU, DFFB / Fold change vs veh, DFFB / RFU, FOXP1 / Fold change vs veh, FOXP1 / RFU, CARD8 / Fold change vs veh, CARD8 / RFU, STRN3 / Fold change vs veh, STRN3 / RFU, ADK / Fold change vs veh, ADK / RFU, RASSF2 / Fold change vs veh, RASSF2 / RFU, WIPF1 / Fold change vs veh, WIPF1 / RFU, LARP1B / Fold change vs veh, LARP1B / RFU, RASA1 / Fold change vs veh, RASA1 / RFU, RB1 / Fold change vs veh, RB1 / RFU, PPFIA1 / Fold change vs veh, PPFIA1 / RFU, MAT2A / Fold change vs veh, MAT2A / RFU, CCT5 / Fold change vs veh, CCT5 / RFU, WDR92 / Fold change vs veh, WDR92 / RFU, CUX1 / Fold change vs veh, CUX1 / RFU, TTC7A / Fold change vs veh, TTC7A / RFU, TMEM135 / Fold change vs veh, TMEM135 / RFU, DEPTOR / Fold change vs veh, DEPTOR / RFU, CPM / Fold change vs veh, CPM / RFU, DNAJB6 / Fold change vs veh, DNAJB6 / RFU, CACNA2D3 / Fold change vs veh, CACNA2D3 / RFU, DTX4 / Fold change vs veh, DTX4 / RFU, TFCP2 / Fold change vs veh, TFCP2 / RFU, GMCL1 /// GMCL1P1 / Fold change vs veh, GMCL1 /// GMCL1P1 / RFU, AEBP2 / Fold change vs veh, AEBP2 / RFU, SNHG1 /// SNORD22 /// SNORD25 /// SNORD26 /// SNORD27 /// SNORD28 /// SNORD29 /// SNORD31 / Fold change vs veh, SNHG1 /// SNORD22 /// SNORD25 /// SNORD26 /// SNORD27 /// SNORD28 /// SNORD29 /// SNORD31 / Fold change (Aza/veh), C12orf56 (ProbeSet 11735607_a_at) / Fold change (ACY-1035/veh), C12orf56 (ProbeSet 11735607_a_at) / Fold change (Aza/veh), FGFR1OP (ProbeSet 11751329_s_at) / Fold change (ACY-1035/veh), FGFR1OP (ProbeSet 11751329_s_at) / Fold change (Aza/veh), VPS36 (ProbeSet 11739960_a_at) / Fold change (ACY-1035/veh), VPS36 (ProbeSet 11739960_a_at) / RFU SYPL1 (11715823_x_at) / Fold change /veh SYPL1 (11715823_x_at) / RFU IGFBP7 (11715501_s_at) / Fold change /veh IGFBP7 (11715501_s_at) / RFU REEP3 (11722064_at) / Fold change /veh REEP3 (11722064_at) / RFU IGLL1 (11728026_x_at) / Fold change /veh IGLL1 (11728026_x_at): dose or concentration left out as unconfirmed. Conditions: ProbeSet 11725217_a_at; LIST B.

Consider `Nc1ccc(-c2cccs2)cc1NC(=O)c1ccc2c(c1)cc(C1CC1)n2CCN1CCOCC1` [ACY-1035], for which the “Fold change vs veh, WDSUB1” value came out at 1.02.
